Measurements as given in EPA's ToxRefDB 2.

Legend:
[1] = test system: rat; details: Sub-acute repeat dose toxicity, Oral, Gavage/Intubation, dose end: 14 day, group: systemic
[2] = test system: rabbit; details: Sub-acute repeat dose toxicity, Oral, Gavage/Intubation, dose end: 5 day, group: systemic
[3] = test system: dog; details: Sub-acute repeat dose toxicity; beagle; Oral; Gavage/Intubation; dose end: 5 day; group: systemic; systemic / in life observation / clinical signs / emesis
[4] = test system: primate; details: Sub-acute repeat dose toxicity; Oral; Gavage/Intubation; dose end: 8 day; group: systemic; systemic / hematology / neutrophils / neutrophils + systemic / in life observation / body weight / body weight + systemic / in life …
[5] = test system: primate; details: Sub-acute repeat dose toxicity, Oral, Gavage/Intubation, dose end: 15 day, group: systemic
[6] = test system: rat; details: Sub-acute repeat dose toxicity, sprague dawley, Oral, Gavage/Intubation, dose end: 28 day, group: systemic
[7] = test system: primate; details: Sub-acute repeat dose toxicity; Oral; Gavage/Intubation; dose end: 35 day; group: systemic; systemic / in life observation / clinical signs / emesis
[8] = test system: primate; details: Sub-acute repeat dose toxicity; Oral; Gavage/Intubation; dose end: 5 day; group: systemic; systemic / clinical chemistry / alanine aminotransferase (alt/sgpt) / alanine aminotransferase (alt/sgpt) + systemic / clinical chemistry / …
[9] = test system: rat; details: Sub-acute repeat dose toxicity, Oral, Gavage/Intubation, dose end: 7 day, group: systemic
[10] = test system: primate; details: Sub-acute repeat dose toxicity; Oral; Gavage/Intubation; dose end: 7 day; group: systemic; systemic / in life observation / clinical signs / abnormal feces + systemic / hematology / erythrocyte (rbc) count differential / …
[11] = test system: rat; details: Sub-acute repeat dose toxicity; Oral; Gavage/Intubation; dose end: 14 day; group: systemic; systemic / clinical chemistry / protein / protein + systemic / hematology / erythrocyte (rbc) count differential / erythrocyte (rbc) + …
[12] = test system: primate; details: Subchronic oral toxicity in nonrodent, Gavage/Intubation, dose end: 42 day, group: systemic, systemic / clinical chemistry / [other] / [other] + systemic / clinical chemistry / cytochrome p450, nos / cytochrome p450, nos + systemic…
[13] = test system: primate; details: Sub-acute repeat dose toxicity; Oral; Gavage/Intubation; dose end: 14 day; group: systemic; systemic / clinical chemistry / [other] / [other] + systemic / clinical chemistry / testosterone / testosterone + systemic / hematology / …
[14] = test system: dog; details: Chronic toxicity, beagle, Oral, Feed, dose end: 52 week, group: systemic
[15] = test system: rat; details: Prenatal developmental toxicity study, other, Oral, Gavage/Intubation, dose end: 16 GD
[16] = test system: mouse; details: Carcinogenicity, cd1, Oral, Feed, dose end: 18 month, group: systemic
[17] = test system: rat; details: Multigenerational reproductive toxicity study, other, Oral, Feed, dose end: 2 generation
[18] = test system: rat; details: Subchronic oral toxicity in rodents, sprague dawley, Feed, dose end: 90 day, group: systemic
[19] = test system: dog; details: Subchronic oral toxicity in nonrodent, beagle, Feed, dose end: 90 day, group: systemic
[20] = test system: mouse; details: Subchronic oral toxicity in rodents, cd1, Feed, dose end: 90 day, group: systemic
[21] = systemic / in life observation / clinical signs / nasal discharge + systemic / in life observation / clinical signs / salivation
[22] = systemic / pathology gross / intestine large / dilatation + systemic / pathology gross / intestine small / dilatation + systemic / pathology…
[23] = systemic / in life observation / clinical signs / [other] + systemic / in life observation / clinical signs / abnormal feces + systemic / in…
[24] = systemic / in life observation / clinical signs / abnormal feces + systemic / in life observation / clinical signs / general pallor + …
[25] = systemic / clinical chemistry / alanine aminotransferase (alt/sgpt) / alanine aminotransferase (alt/sgpt) + systemic / clinical chemistry / …
[26] = systemic / in life observation / body weight / body weight + systemic / in life observation / clinical signs / abnormal feces + systemic / …
[27] = systemic / hematology / fibrinogen / fibrinogen + systemic / hematology / leukocyte (wbc) count differential / leukocyte (wbc) + systemic / …
[28] = systemic / pathology microscopic / blood / vasculitis + systemic / pathology microscopic / kidney / degeneration + systemic / pathology …
[29] = systemic / clinical chemistry / protein / protein + systemic / hematology / neutrophils / neutrophils + systemic / in life observation / …
[30] = systemic / in life observation / food consumption / food consumption + systemic / clinical chemistry / cytochrome p450, nos / cytochrome …
[31] = systemic / clinical chemistry / alanine aminotransferase (alt/sgpt) / alanine aminotransferase (alt/sgpt) + systemic / pathology microscopic…
[32] = group: developmental, developmental / developmental malformation / bone / malformation, total + developmental / developmental malformation / bone / misshapen + …
[33] = group: maternal, reproductive / reproductive performance / resorptions / resorptions + reproductive / reproductive performance / estrous cycle / corpora …
[34] = group: offspring, developmental / offspring survival late / lactation index / lactation index + developmental / offspring survival late / viability index / …
[35] = group: parental, systemic / hematology / methemoglobin / methemoglobin
[36] = group: reproductive, reproductive / reproductive performance / gestational length / gestational length + reproductive / reproductive performance / implantations…
[37] = systemic / hematology / erythrocyte (rbc) count differential / erythrocyte (rbc) + systemic / hematology / hematocrit (hct) / hematocrit (…
[38] = systemic / pathology microscopic / liver / pigmentation
[39] = systemic / hematology / hemoglobin (hgb) / hemoglobin (hgb) + systemic / in life observation / body weight / body weight gain + systemic / …

SMILES: CC(C)(O)c1ccc(CNC(=O)c2cccnc2Oc2ccc(F)cc2)cc1
- LEL [1, 21]: 3 mg/kg/day
- NEL [1, 21]: < 3 mg/kg/day
- LOAEL [1, 22]: > 30 mg/kg/day
- NOAEL [1, 22]: ≥ 30 mg/kg/day
- LOAEL [2, 23]: > 20 mg/kg/day
- NOAEL [2, 23]: ≥ 20 mg/kg/day
- LEL [2, 24]: 1 mg/kg/day
- NEL [2, 24]: < 1 mg/kg/day
- LEL [3]: 10 mg/kg/day
- LOAEL [3]: > 10 mg/kg/day
- NEL [3]: < 10 mg/kg/day
- NOAEL [3]: ≥ 10 mg/kg/day
- LEL [4]: 1 mg/kg/day
- LOAEL [4]: > 1 mg/kg/day
- NEL [4]: < 1 mg/kg/day
- NOAEL [4]: ≥ 1 mg/kg/day
- LOAEL [5, 25]: > 20 mg/kg/day
- NOAEL [5, 25]: ≥ 20 mg/kg/day
- LEL [5, 26]: 3 mg/kg/day
- NEL [5, 26]: < 3 mg/kg/day
- LOAEL [6, 27]: > 20 mg/kg/day
- NOAEL [6, 27]: ≥ 20 mg/kg/day
- LEL [6, 28]: 1 mg/kg/day
- NEL [6, 28]: < 1 mg/kg/day
- LEL [7]: 1 mg/kg/day
- LOAEL [7]: > 1 mg/kg/day
- NEL [7]: < 1 mg/kg/day
- NOAEL [7]: ≥ 1 mg/kg/day
- LEL [8]: 20 mg/kg/day
- LOAEL [8]: > 20 mg/kg/day
- NEL [8]: < 20 mg/kg/day
- NOAEL [8]: ≥ 20 mg/kg/day

SMILES: Cc1oc(-c2ccccc2)nc1CCOc1cccc2c1ccn2CCC(=O)O
- LOAEL [9, 29]: > 2000 mg/kg/day
- NOAEL [9, 29]: ≥ 2000 mg/kg/day
- LEL [9, 30]: 100 mg/kg/day
- NEL [9, 30]: < 100 mg/kg/day
- LEL [10]: 100 mg/kg/day
- LOAEL [10]: > 2000 mg/kg/day
- NEL [10]: < 100 mg/kg/day
- NOAEL [10]: ≥ 2000 mg/kg/day
- LEL [11]: 10 mg/kg/day
- LOAEL [11]: > 1000 mg/kg/day
- NEL [11]: < 10 mg/kg/day
- NOAEL [11]: ≥ 1000 mg/kg/day
- LEL [12]: 100 mg/kg/day
- LOAEL [12]: > 100 mg/kg/day
- NEL [12]: < 100 mg/kg/day
- NOAEL [12]: ≥ 100 mg/kg/day
- LEL [13]: 100 mg/kg/day
- LOAEL [13]: > 2000 mg/kg/day
- NEL [13]: < 100 mg/kg/day
- NOAEL [13]: ≥ 2000 mg/kg/day

SMILES: C#CCOc1cc(-n2nc3n(c2=O)CCCC3)c(Cl)cc1Cl [Azafenidin]
- LOAEL [14, 31]: 0.86 mg/kg/day
- NOAEL [14, 31]: 0.3 mg/kg/day
- LEL ([14]; systemic / pathology microscopic / liver / cytoplasmic alteration): 0.3 mg/kg/day
- NEL ([14]; systemic / pathology microscopic / liver / cytoplasmic alteration + systemic / clinical chemistry / alanine aminotransferase (alt/sgpt) / …): 0.16 mg/kg/day
- LEL [15, 32]: 24 mg/kg/day
- LOAEL [15, 32]: 24 mg/kg/day
- NEL [15, 32]: 16 mg/kg/day
- NOAEL [15, 32]: 16 mg/kg/day
- LEL ([15]; group: maternal, reproductive / reproductive performance / estrous cycle / corpora lutea): 16 mg/kg/day
- LOAEL ([15]; group: maternal, reproductive / reproductive performance / resorptions / resorptions): 24 mg/kg/day
- NEL [15, 33]: 8 mg/kg/day
- NOAEL [15, 33]: 16 mg/kg/day
- NEL ([16]; systemic / pathology gross / full gross necropsy / proliferation): 4 mg/kg/day
- LOAEL ([16]; systemic / pathology microscopic / liver / adenoma + systemic / pathology microscopic / liver / pigmentation): 39.8 mg/kg/day
- NOAEL ([16]; systemic / pathology microscopic / liver / adenoma + systemic / pathology microscopic / liver / pigmentation + systemic / hematology / mean …): 4 mg/kg/day
- LEL ([16]; systemic / pathology microscopic / liver / adenoma + systemic / pathology microscopic / liver / pigmentation + systemic / pathology gross / …): 39.8 mg/kg/day
- LEL [17, 34]: 14.5 mg/kg/day
- LOAEL [17, 34]: 14.5 mg/kg/day
- NEL [17, 34]: 2.33 mg/kg/day
- NOAEL [17, 34]: 2.33 mg/kg/day
- LEL [17, 35]: 0.389 mg/kg/day
- NEL [17, 35]: < 0.389 mg/kg/day
- LOAEL ([17]; group: parental, systemic / in life observation / food consumption / food consumption + systemic / in life observation / mortality / mortality): 78.6 mg/kg/day
- NOAEL ([17]; group: parental, systemic / in life observation / food consumption / food consumption + systemic / in life observation / mortality / mortality + systemic / …): 14.4 mg/kg/day
- LEL [17, 36]: 14.4 mg/kg/day
- LOAEL [17, 36]: 14.4 mg/kg/day
- NEL [17, 36]: 2.31 mg/kg/day
- NOAEL [17, 36]: 2.31 mg/kg/day
- LOAEL [18, 37]: 71.9 mg/kg/day
- NEL [18, 37]: 4.02 mg/kg/day
- NOAEL [18, 37]: 24.2 mg/kg/day
- LEL ([18]; systemic / organ weight / kidney / relative to body weight): 24.2 mg/kg/day
- LOAEL ([19]; systemic / pathology microscopic / liver / hypertrophy + systemic / pathology microscopic / liver / pigmentation): 2.02 mg/kg/day
- NOAEL ([19]; systemic / pathology microscopic / liver / hypertrophy + systemic / pathology microscopic / liver / pigmentation + systemic / clinical …): 0.34 mg/kg/day
- LEL [19, 38]: 0.34 mg/kg/day
- NEL [19, 38]: < 0.34 mg/kg/day
- LOAEL [20, 39]: 144 mg/kg/day
- NEL [20, 39]: 7.94 mg/kg/day
- NOAEL [20, 39]: 47.2 mg/kg/day
- LEL [20, 38]: 47.2 mg/kg/day
